Experimental findings from ChEMBL document CHEMBL1137279, “Synthesis of N1-arylidene-N2-quinolyl- and N2-acrydinylhydrazones as potent antimalarial agents active against CQ-resistant P. falciparum strains” (Bioorg Med Chem Lett, 2006) are described below.

Data set [1] can be described thus: Cytotoxicity against mouse WEHI cell line by MTT assay. The data set is classed as cell-based. The conditions noted are these: WEHI cells, read-out: ED50 (the source's name).
Data set [2] has as its system Plasmodium falciparum. The experiment in a line: Antimalarial activity against chloroquine-sensitive Plasmodium falciparum 3D7. It is filed as functional, organism-based.
Data set [3] relates to Plasmodium falciparum. The experiment in a line: Antimalarial activity against chloroquine-resistant Plasmodium falciparum K1. It is filed as functional, organism-based.
Data set [4] deals with Plasmodium falciparum. The experiment in a line: Antimalarial activity against chloroquine-resistant Plasmodium falciparum W2. The data set is classed as functional, organism-based.
The test system of data set [5] is Plasmodium falciparum. The experiment in a line: Antimalarial activity against chloroquine-sensitive Plasmodium falciparum D10. It is filed as functional, organism-based.

In the case of `Clc1ccc2c(N/N=C/c3ccc(CN4CCCC4)cc3)ccnc2c1`, in data set [1], the CC50 is 19400 nM. The IC50 in the data set with Plasmodium falciparum [2] was 19.1 nM; in the data set on Plasmodium falciparum [3] it was 16.4 nM; in the data set with Plasmodium falciparum [4] it was 58.3 nM; in the data set on Plasmodium falciparum [5] it was 28.8 nM.
In the case of `COc1ccc(/C=N/Nc2ccnc3ccc(OC)cc23)cc1`, the IC50 worked out at 128 nM in the data set with Plasmodium falciparum [4] and 99 nM in the data set on Plasmodium falciparum [5].
Consider `COc1ccc2nc3cc(Cl)ccc3c(N/N=C/c3ncc[nH]3)c2c1`, for which, in data set [1], the CC50 came out at 5100 nM. Further, the half-maximal inhibitory concentration (IC50) with Plasmodium falciparum [2] amounted to 1 nM; in the data set on Plasmodium falciparum [3] it was 4.5 nM; in the data set on Plasmodium falciparum [4] it was 30.8 nM; in the data set on Plasmodium falciparum [5], 62.6 nM.
In the case of `COc1ccc(/C=N/Nc2ccnc3cc4c(cc23)OCO4)cc1`, the concentration for half-maximal inhibition (IC50) in the data set with Plasmodium falciparum [2] was found to be 155 nM; in the data set on Plasmodium falciparum [3] it was 467 nM; in the data set with Plasmodium falciparum [4], 163 nM; in the data set on Plasmodium falciparum [5], 210 nM.
Consider `CCN(CC)Cc1ccc(/C=N/Nc2ccnc3ccc(OC)cc23)cc1`, for which the IC50 in the data set with Plasmodium falciparum [2] came out at 11 nM; in the data set with Plasmodium falciparum [3], 55.1 nM; in the data set on Plasmodium falciparum [4] it was 79 nM; in the data set with Plasmodium falciparum [5], 39.2 nM.
With `COc1cccc2c(N/N=C/c3ccccc3)ccnc12`, the IC50 in the data set on Plasmodium falciparum [2] worked out at 5700 nM; with Plasmodium falciparum [4], 254 nM; in the data set on Plasmodium falciparum [5] it was 519 nM.
On to `COc1ccc2nc3cc(Cl)ccc3c(N/N=C/c3ncc[nH]3)c2n1`, for which the IC50 in the data set with Plasmodium falciparum [2] is 283 nM; with Plasmodium falciparum [3] it was 198 nM; with Plasmodium falciparum [4], 26.9 nM; in the data set with Plasmodium falciparum [5] it was 72 nM.
On to `COc1ccc2nccc(N/N=C/c3ccc(N(C)C)cc3)c2c1`, for which the concentration for half-maximal inhibition (IC50) in the data set on Plasmodium falciparum [4] stood at 104 nM; in the data set on Plasmodium falciparum [5], 83 nM.
With `COc1ccc2nc3cc(Cl)ccc3c(N/N=C/c3ccc(CN4CCCC4)cc3)c2c1`, the IC50 in the data set with Plasmodium falciparum [2] is 112 nM; with Plasmodium falciparum [4], 137 nM; with Plasmodium falciparum [5], 97 nM.
In the case of `COc1cccc2c(N/N=C/c3ccc(N(C)C)cc3)ccnc12`, the values for the half-maximal inhibitory concentration (IC50) in the data set on Plasmodium falciparum [4] and in the data set with Plasmodium falciparum [5] were 356 nM and 337 nM, respectively.
Consider `CCN(CC)CCCC(C)Nc1ccnc2cc(Cl)ccc12` (stereo not given) [CHLOROQUINE], for which the CC50 in data set [1] is 9700 nM.
